Patent US20260137698A1, “CYCLIN-DEPENDENT KINASE 7 INHIBITORS” (JOINT STOCK COMPANY «BIOCAD», priority 2022, published 2026)
Read-outs that look alike come from different tables or passages of the source.

Experiments:
[1] = Pharmacokinetics in mice plasma following intravenous administration; type: in vivo, CD-1 mice; details: male, CD-1, mouse; for half-life: read-out: T½ (converted); for Vd: read-out: Vss
Protocol: (§1) Pharmacokinetic studies of the compounds were carried out on CD-1 mice, males, aged about 8 weeks, weighing 16-29 g. The animals were given a single oral (PO) administration (intragastrically) at a dose of 10 mg/kg in a formulation in the form of a 0.2% solution of hydroxypropyl methylcellulose (HPMC) in a 5% aqueous solution of glucose and a single IV-bolus administration (intravenously) at a dose of 1.0 mg/kg for 1277 and at a dose of 2.0 mg/kg for substances CDK7_1187, CDK7_1225, CDK7_1229 and CDK7_1276 in a formulation comprising 0.2% DMSO in 5% aqueous solution of glucose.
(§2) For each substance, 21-30 animals were used for each dose of PO and IV administration. All mice were weighed and randomized before dosing.
(§3) 3-5 animals were used for each time point. Each animal was sampled at one time point. At least 12 h before the start of the experiment, the animals were deprived of food while maintaining free access to water.
(§4) Animals from the PO and IV groups were subjected to blood sampling before administering the substance and after 0.5, 2, 4, 8, 12 and 24 h.
(§5) Blood was collected by cardiac puncture using the closed method. Blood was collected in a volume of 0.2 ml into polypropylene tubes comprising 20 μl of 5% EDTA. Blood plasma was separated by centrifugation at 10000 rpm for 10 minutes at 4±2° C. and transferred into clean labeled tubes.
(§6) Test blood plasma samples of mice from the experimental groups were obtained in a volume of 50 μl. Afterwards, […] of a solution of internal standard (tolbutamide (Sigma, T0891)) prepared in acetonitrile, at a concentration of 50 ng/ml, pre-cooled in the refrigerator at 2-8° C., was added to the samples, stirred in a vortex mixer (G560E, Scientific Industries) for 10 seconds and incubated at 4° C. for 15 minutes for protein precipitation. Samples were then centrifuged (5417R centrifuge, Eppendorf) at 1500 g for 10 minutes while cooling to 4° C. 150 μl of the supernatant were transferred to a 96-well plate for HPLC-MS/MS analysis. Quantitative determination of test compounds in blood plasma was carried out by absolute calibration method. The calibration curve was generated by analyzing plasma samples with supplementations of known amounts of the standard of the compound being determined. The lower limit of the quantitative determination of test compounds in blood plasma was 1 ng/ml, the analytical range of the technique was 1 ng/ml to 2000 ng/ml. The technique was partially validated in terms of selectivity, accuracy, precision, linearity, matrix effects, stability.
(§7) The Qtrap 5500 mass spectrometer (AB Sciex) in combination with the Agilent 1290 Infinity II HPLC liquid chromatograph (Agilent) and a cooling multisampler (Agilent 1290 Infinity II Multisampler G7167B) was used as an HPLC-MS/MS system. Chromatographic analysis was performed on a C18 reversed-phase HPLC column (YMC-Triart C18, 50*2 mm, 1.9 μm, YMC CO. Ltd). The mobile phase used was used a mixture of deionized water and acetonitrile supplemented with 0.1% formic acid in gradient mode, flow rate: 0.5 ml/min, column T=40° C., autosampler T=8° C., analysis time: 2.8 min. Mass spectrometric detection was performed in multiple reaction monitoring (MRM) mode. Precursor ions, fragment ions and collision energies for each substance were selected experimentally. Two Q1/Q3 transitions were used to record MRM chromatograms of the analyte and internal standard; one of transitions was used for quantitative calculations, the other one was used to confirm that the […] corresponds to a given substance. Based on the results of HPLC-MS/MS analysis of calibration samples using the Analyst 1.6.3 software, the calibration dependence of areas of chromatographic analyte peaks normalized to the signal of the internal standard on the concentration of the analyte was built.
(§8) Pharmacokinetic analysis was performed by non-compartmental method using the Phoenix WinNonlin 6.3 software package. […]

[2] = Pharmacokinetics in mice plasma following oral administration; type: in vivo, CD-1 mice; details: dose 10 mg/kg; for F: absolute bioavailability, mice; for AUC(0-t) / Cmax / Tmax / half-life: male, CD-1, mouse, mice plasma; for half-life: read-out: T½ (converted)
Protocol: as §1, §2, §3, §4, §5, §6, §7, §8

[3] = system: NCI-H69 xenografts (small cell lung cancer); experiment: Antitumor activity in vivo, subcutaneous NCI-H69 xenograft model; design: species or system BALB/c Nude mice
Protocol: The antitumor activity of CDK7_1187 in vivo was evaluated on a subcutaneous xenograft model of the NCl-H69 line (small cell lung cancer, ATCC® HTB-119™) transplanted to BALB/c Nude mice.
NCl-H69 cell line was cultured in RPMI-1640 medium (PanEco, Russia) with enrichment of the basal growth medium with L-glutamine at a concentration of 2 mM (PanEco, Russia) and 10% fetal bovine serum (Gibco, Thermo Fisher Scientific, USA).
The study used 20 BALB/c Nude mice (females) obtained from the Federal State Budgetary Scientific Institution “Federal Research Center Institute of Cytology and Genetics, Siberian Branch of Russian Academy of Sciences” (ICG SB RAS). BALB/c Nude mice were subcutaneously administered into the right lateral side of the body with […] of suspension containing 5×10^6 NCI-H69 tumor cells and Matrigel (Corning® Matrigel® Basement Membrane Matrix) at 1:1 ratio.
Linear dimensions of the tumor were determined using an electronic caliper. Volume of the tumor node was determined by the formula (1):
[formula] • where L and W are large and small diameters of the tumor node, respectively.
The efficacy of test product was measured by the index of tumor growth inhibition (TGI, %) calculated according to the formula (2):
[formula] • where Vc and Vp are mean volumes of the tumor node in the control group and the group of animals that received the test substance, respectively.
After achieving an average tumor volume of 130 mm^3, animals were divided into 2 groups of 10 animals, volume of the tumor node was used as a randomization criterion. The day of the first administration of the product was designated as day 0.
Test substance CDK7_1187 was administered intragastrically at a dose of 6 mg/kg daily, for 21 days. Before each administration, CDK7_1187 was diluted in 5% solution of glucose (Solopharm, Russia) and 0.1% solution of DMSO (Sigma, USA). The control group received a 5% solution of glucose and a 0.1% solution of DMSO in an analogous volume.
Statistical analysis was carried out using the GraphPad Prism 9 software package. Mann-Whitney U test was employed to assess the significance of differences when comparing the volumes of tumor nodes. Differences were identified as significant if p<0.05.

Row | AUC(0-t) ([1]; dose 2 mg/kg) [ng·h/mL] | clearance ([1]; dose 2 mg/kg) [mL/min/kg] | half-life ([1]; dose 2 mg/kg) [h] | Vd ([1]; dose 2 mg/kg) [L/kg] | F [2] [%] | AUC(0-t) [2] [ng·h/mL] | Cmax [2] [ng/mL] | Tmax [2] [h] | half-life [2] [h] | Structure (SMILES) | tumor volume versus control group ([3]; 6 mg/kg daily, days 17 and 21, Mann-Whitney p<0.05) | index of tumor growth inhibition (TGI) ([3]; BALB/c Nude mice, 6 mg/kg intragastrically daily for 21 days, end of the observation period) [%] | TGI index ([3]; Day 9, intragastrically 6 mg/kg daily) [%] | TGI index ([3]; Day 13, intragastrically 6 mg/kg daily) [%] | TGI index ([3]; Day 17, intragastrically 6 mg/kg daily) [%] | TGI index ([3]; Day 21, intragastrically 6 mg/kg daily) [%] | AUC(0-t) ([1]; dose 1 mg/kg) [ng·h/mL] | clearance ([1]; dose 1 mg/kg) [mL/min/kg] | half-life ([1]; dose 1 mg/kg) [h] | Vd ([1]; dose 1 mg/kg) [L/kg]
1 | 691 | 48 | 1.8 | 6.3 | 102 | 3540 | 712 | 2 | 1.9 | CC1(C)CC[C@H](Nc2ncc(C(F)(F)F)c(-c3c[nH]c4c3CCCN(C3CC3)C4=O)n2)CN1 [CDK7_1225, 7-cyclopropyl-3-(2-{[(3S)-6,6-dimethylpiperidin-3-yl]amino}-5-(trifluoromethyl)py-rimidin-4-yl)-1H,4H,5H,6H,7H, 8H-pyrrolo[2,3-c]azepin-8-one] | – | – | – | – | – | – | – | – | – | –
2 | 1140 | 29 | 2 | 4.17 | 102 | 5790 | 1070 | 0.5 | 2.5 | CC(C)N1CCCc2c(-c3nc(N[C@H]4CCC(C)(C)NC4)ncc3C(F)(F)F)c[nH]c2C1=O [CDK7_1229, 3-(2-{[(3S)-6,6-dimethylpiperidin-3-yl]amino}-5-(trifluoromethyl)py-rimidin-4-yl)-7-(propan-2-yl)-1H,4H,5H,6H,7H, 8H-pyrrolo[2,3-c]azepin-8-one] | – | – | – | – | – | – | – | – | – | –
3 | 314 | 103 | 1.7 | 10.1 | 72.7 | 1160 | 309 | 0.5 | 1.7 | CN1CCCc2c(-c3nc(N[C@H]4CCC(C)(C)NC4)ncc3C(F)(F)F)c[nH]c2C1=O [CDK7_1187, 3-(2-{[(3S)-6,6-dimethylpiperidin-3-yl]amino}-5-(trifluoromethyl)py-rimidin-4-yl)-7-methyl-1H,4H,5H,6H,7H, 8H-pyrrolo[2,3-c]azepin-8-one] | statistically significantly less | 48 | 10 | 36 | 40 | 48 | – | – | – | –

Continued, compound first:

Row | Structure (SMILES) | AUC(0-t) ([1]; dose 2 mg/kg) [ng·h/mL] | clearance ([1]; dose 2 mg/kg) [mL/min/kg] | half-life ([1]; dose 2 mg/kg) [h] | Vd ([1]; dose 2 mg/kg) [L/kg] | F [2] [%] | AUC(0-t) [2] [ng·h/mL] | Cmax [2] [ng/mL] | Tmax [2] [h] | half-life [2] [h] | tumor volume versus control group ([3]; 6 mg/kg daily, days 17 and 21, Mann-Whitney p<0.05) | index of tumor growth inhibition (TGI) ([3]; BALB/c Nude mice, 6 mg/kg intragastrically daily for 21 days, end of the observation period) [%] | TGI index ([3]; Day 9, intragastrically 6 mg/kg daily) [%] | TGI index ([3]; Day 13, intragastrically 6 mg/kg daily) [%] | TGI index ([3]; Day 17, intragastrically 6 mg/kg daily) [%] | TGI index ([3]; Day 21, intragastrically 6 mg/kg daily) [%] | AUC(0-t) ([1]; dose 1 mg/kg) [ng·h/mL] | clearance ([1]; dose 1 mg/kg) [mL/min/kg] | half-life ([1]; dose 1 mg/kg) [h] | Vd ([1]; dose 1 mg/kg) [L/kg]
4 | O=C1c2[nH]cc(-c3nc(N[C@H]4CCC5(CC5)NC4)ncc3C(F)(F)F)c2CCCN1C1CC1 [CDK7_1276, 3-(2-{[(6S)-4-azaspiro[2.5]octan-6-yl]amino}-5-(trifluoromethyl)py-rimidin-4-yl)-7-cyclopropyl-1H,4H,5H,6H,7H, 8H-pyrrolo[2,3-c]azepin-8-one] | 1380 | 21.5 | 4.15 | 6.52 | 116 | 7980 | 1510 | 0.5 | 2 | – | – | – | – | – | – | – | – | – | –
5 | CC(C)N1CCCc2c(-c3nc(N[C@H]4CCC5(CC5)NC4)ncc3C(F)(F)F)c[nH]c2C1=O [CDK7_1277, 3-(2-{[(6S)-4-azaspiro[2.5]octan-6-yl]amino}-5-(trifluoromethyl)py-rimidin-4-yl)-7-(propan-2-yl)-1H,4H,5H,6H,7H, 8H-pyrrolo[2,3-c]azepin-8-one] | – | – | – | – | 85.8 | 3110 | 893 | 0.5 | 3.8 | – | – | – | – | – | – | 363 | 45 | 2.1 | 6.89
